From patent publication EP4624482A1, “PYRIMIDOPYRIMIDINONE COMPOUND AND PHARMACEUTICAL COMPOSITION COMPRISING SAME” (Axceso Biopharma Co., Ltd., priority 2022, dated 2024)

Legend:
[1] = test system: tyrosine hydroxylase (TH); assay: Differentiation of pluripotent stem cells into dopaminergic neurons: TH expression; assay type: cell-based
Description: Pluripotent stem cells were seeded in AggreWell plates (stemcell) at 5,000 cells/microwell and cultured for 5 days in E6 medium (GIBCO) to induce embryonic body (EB) formation. For neural rosette formation, EBs were seeded into 35 mm dishes in groups of 30 and cultured for 10 days in N2bF medium. The 35 mm dishes were used after being coated with 15 µg/ml of poly-L-ornithine (sigma) and 1 µg/ml of fibronectin (sigma). The N2Bf medium composition was DMEM/F12 (GIBCO), N2 supplement (stemcell) 1×, 10% NEAA (GIBCO), 55 µM betaMercaptoethanol (GIBCO), bFGF (peprotech) 20 ng/ml. For the formation of spherical neural masses (SNMs), rosette masses were sliced and cultured in petri dishes with N2bF medium. SNMs were no larger than 500 µM in size and were sliced and cultured for 3 to 4 passages. After subculture of SNM, the clumps were broken into small pieces using a tungsten mesh (Nilaco) for the neural progenitor cell (NPC) culture step, and then attached to a PLO/FN-coated dish and cultured in N2bF medium. To differentiate NPCs into dopaminergic neurons, the medium was replaced with an ITS-B27 medium after 2 days of NPC culture. The ITS-B27 medium composition was DMEM/F12 (GIBCO), D-(+)-glucose (sigma) 1.5 mg/ml, insulin (wako) 5 µg/ml, transferrin (wako) 50 µg/ml, selenite (sigma) 30 nM, GlutaMAX (GIBCO) 2.5%, and B27 (GIBCO) 1×. After 4 days of NPC culture, 200 ng/ml of Sonic Hedgehog and 100 ng/ml of FGF8 (peprotech) were added to the ITS-B27 medium. After 6 days of NPC culture, 200 ng/ml of Sonic Hedgehog, 20 ng/ml of GDNF, 20 ng/ml of BDNF (peprotech), 200 µM of ascorbic acid, and 500 µM of cAMP (sigma) were added to the ITS-B27 medium and cultured for approximately 5 weeks. The compound of formula (1a-1) was treated starting from the stage 2 days after NPC culture. […]
The effect of the compound of formula (1a-1) on differentiation into neurons was evaluated by comparing the expression of tyrosine hydroxylase (TH) and dopamine transporter (DAT) depending on the presence or absence of treatment with the compound of formula (1a-1).

[2] = test system: amyloid beta monomer (monomeric Aβ, mAβ); assay: mAβ expression in mouse brain of AD-induced animal model, fluorescence microscopy; assay type: in vivo, mice; settings: 1 mg/kg intraperitoneally once every 3 days for 2 weeks; brain sections at 1 week and 4 weeks after drug administration
Description: To determine the therapeutic effect on Alzheimer's Disease (AD), the effects on amyloid beta monomer (monomeric Aβ, mAβ) and Tau protein, which are biomarkers of AD, were analyzed in an AD-induced animal model.
APP/PS/Tau transgenic mice were used as an AD-induced animal model. The compound of formula (1a-1) was administered intraperitoneally once every 3 days at a concentration of 1 mg/kg to 12-week-old transgenic mice for 2 weeks, and the expression of mAβ and Tau proteins in the mouse brain was measured after 1 and 4 weeks. After anesthetizing the mouse, the cervical region was incised with a dissecting tool, and then the occipital region was incised to remove both sides of the skull. The brain was washed with phosphate buffered saline (PBS) and fixed with 4% paraformaldehyde (Sigma, St Louis, MO, USA) for 12 hours at 4°C. These were cut to a thickness of approximately 10 µm using a vibratome, and hippocampus and cortex sections were collected and placed in 24 wells. PBS was added to the wells containing the fixed tissue sections, and fluorescent nanoparticles (QD565, red fluorescence) conjugated with anti-amyloid antibodies and anti-Tau antibodies (Santa Cruz, USA) were added to each 2 µM, and reacted at 4°C for 12 hours. The expression of mAβ and Tau was confirmed by fluorescence microscopy.

[3] = test system: APP/PS/Tau transgenic mice; assay: Intestinal length in AD-induced animal model; assay type: in vivo; settings: 1 mg/kg intraperitoneally once every 3 days for 2 weeks
Description: In neurodegenerative diseases (AD and PD), the length of the intestine tends to decrease as the disease progresses, so we looked for changes in intestinal length in an AD-induced animal model.
APP/PS/Tau transgenic mice were used as an AD-induced animal model. The compound of formula (1a-1) was administered intraperitoneally once every 3 days at a concentration of 1 mg/kg to 12-week-old transgenic mice for 2 weeks, and the changes in intestinal length of the mice were measured after 1 and 4 weeks.

CCCCCCCCCCCCCC[C@H]1OP(=O)(O)O[C@H]1[C@@H](N)CO.Cl [formula (1a-1), (4S,5R)-4-((S)-1-amino-2-hydroxyethyl)-2-hydroxy-5-tetradecyl-1,3,2-dioxaphosphoran-2-oxide hydrochloride]
TH expression at early time ([1]; 3 weeks of treatment, normally increases after more than 5 weeks of differentiation): elevated
expression of TH ([1]; cell fluorescence immunostaining): increased
TH expression ([1]; western blot of 5-week differentiation sample): increased
red fluorescence for mAβ [2]: negligible
length of the intestine at 4 weeks (6W) compared to 1 week (3W) after administration [3]: longer
intestinal length ([3]; compared to untreated AD-induced control mice): increased
